PubChem BioAssay AID330 (DTP/NCI, 2004)
Several values for one entry are separate records, joined by “and”; a condition that tells them apart may be missing. Identical values can stand only once. Toxic doses and inconclusive results are not listed. How the source made its calls: active means survival T/C of 150% or more; inactive means T/C below 125% in these data.

System: P388 leukemia ip, CD2F1 mice, survival T/C
Test: NCI In Vivo Anticancer Drug Screen. Data for tumor model P388 Leukemia (intraperitoneal) in CD2F1 (CDF1) mice
Details: endpoint: median survival time, higher = longer survival
In short: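 Mice carrying the transplanted tumor received test compound or vehicle. Survival was recorded in each group, and the value is the treated-group measurement divided by that of the vehicle-treated control group.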

[1] = dose: 60.0 mg/kg/injection, schedule: Q01DX005 (ip), vehicle: saline with Tween-80
[2] = dose: 120.0 mg/kg/injection, schedule: Q01DX005 (ip), vehicle: saline with Tween-80
[3] = dose: 240.0 mg/kg/injection, schedule: Q01DX005 (ip), vehicle: saline with Tween-80
[4] = dose: 25.0 mg/kg/injection, schedule: Q01DX009 (ip), vehicle: other
[5] = dose: 50.0 mg/kg/injection, schedule: Q01DX009 (ip), vehicle: other
[6] = dose: 50.0 mg/kg/injection, schedule: Q01DX009 (ip), vehicle: saline with Tween-80
[7] = dose: 100.0 mg/kg/injection, schedule: Q01DX009 (ip), vehicle: saline with Tween-80
[8] = dose: 200.0 mg/kg/injection, schedule: Q01DX009 (ip), vehicle: saline with Tween-80
[9] = dose: 1.56 mg/kg/injection, schedule: Q01DX009 (ip), vehicle: water
[10] = dose: 3.13 mg/kg/injection, schedule: Q01DX009 (ip), vehicle: water
[11] = dose: 25.0 mg/kg/injection, schedule: Q01DX009 (ip), vehicle: saline with Tween-80
[12] = dose: 50.0 mg/kg/injection, schedule: Q01DX009 (ip), vehicle: Klucel (hydroxypropylcellulose) (HPC)
[13] = dose: 100.0 mg/kg/injection, schedule: Q01DX009 (ip), vehicle: Klucel (hydroxypropylcellulose) (HPC)
[14] = dose: 200.0 mg/kg/injection, schedule: Q01DX009 (ip), vehicle: Klucel (hydroxypropylcellulose) (HPC)
[15] = dose: 50.0 mg/kg/injection, schedule: Q01DX005 (ip), vehicle: saline with Tween-80
[16] = dose: 100.0 mg/kg/injection, schedule: Q01DX005 (ip), vehicle: saline with Tween-80

Measured: T/C

CC(=O)O[C@H]1CC[C@]2(C)C3CC[C@]4(C)C([C@H](C)CCCC(C)C)CCC4[C@]3(C#N)n3c(=O)n(-c4ccccc4)c(=O)n3[C@]2(C#N)C1 (some centres not stated)
inactive: [1] 96 % of control | [2] 93 % of control | [3] 91 % of control

[Cu+2].[O-]/N=C/c1ccc(O)c(O)c1[O-].[O-]/N=C/c1ccc(O)c(O)c1[O-]
inactive: [1] 91 % of control | [2] 87 % of control | [3] 89 % of control

COC(=O)C(NC(N)=O)OC (configuration not stated)
inactive: dose: 25.0 mg/kg/injection, schedule: Q01DX009 (ip), vehicle: saline 105 % of control | dose: 50.0 mg/kg/injection, schedule: Q01DX009 (ip), vehicle: saline 100 % of control | dose: 100.0 mg/kg/injection, schedule: Q01DX009 (ip), vehicle: saline 103 % of control

COc1c2occc2c(CN)c2ccc(=O)oc12
inactive: dose: 7.5 mg/kg/injection, schedule: Q01DX005 (ip), vehicle: saline 98 % of control | dose: 15.0 mg/kg/injection, schedule: Q01DX005 (ip), vehicle: saline 99 % of control | dose: 30.0 mg/kg/injection, schedule: Q01DX005 (ip), vehicle: saline 97 % of control

CC(=O)c1cc(C)ccc1S(C)=O (configuration not stated)
inactive: dose: 50.0 mg/kg/injection, schedule: Q01DX005 (ip), vehicle: acetone 99 % of control | dose: 100.0 mg/kg/injection, schedule: Q01DX005 (ip), vehicle: acetone 100 % of control | dose: 200.0 mg/kg/injection, schedule: Q01DX005 (ip), vehicle: acetone 100 % of control

CCOC(=O)c1ccc(-n2c(C)nc3ccc(Br)cc3c2=O)cc1
inactive: [1] 98 % of control | [2] 95 % of control | [3] 100 % of control

COc1cc(Br)c(C(=O)N(C)c2ccccc2)cc1OC
inactive: [4] 106 % of control | [5] 108 % of control

Cc1ccc(S(=O)c2cc(C)cc(C(C)(C)C)c2O)cc1 (configuration not stated)
inactive: [6] 103 % of control | [7] 105 % of control | [8] 96 % of control

N#Cc1c2c(c(=O)n3c1[nH]c1ccccc13)CCC2
inactive: [1] 100 % of control | [2] 93 % of control | [3] 94 % of control

O=C1c2ccccc2C(=O)N1CC[P+](c1ccccc1)(c1ccccc1)c1ccccc1
inactive: dose: 0.78 mg/kg/injection, schedule: Q01DX009 (ip), vehicle: water 87 % of control | [9] 112 % of control and 103 % of control and 115 % of control | dose: 3.13 mg/kg/injection, schedule: Q01DX009 (ip), vehicle: saline with Tween-80 121 % of control | [10] 123 % of control and 118 % of control and 120 % of control | dose: 6.25 mg/kg/injection, schedule: Q01DX009 (ip), vehicle: saline with Tween-80 88 % of control | dose: 12.5 mg/kg/injection, schedule: Q01DX009 (ip), vehicle: water 123 % of control and 105 % of control | dose: 18.8 mg/kg/injection, schedule: Q01DX009 (ip), vehicle: water 93 % of control | [11] 123 % of control | dose: 25.0 mg/kg/injection, schedule: Q01DX009 (ip), vehicle: water 98 % of control

CC(C)(C)c1ccc(NC(=O)Oc2ccccc2)cc1
inactive: [12] 102 % of control | [13] 105 % of control | [14] 102 % of control

C=C1[C@H]2C[C@H]2[C@]2(C)C[C@@H]3OC(=O)C(C)=C3C[C@@H]12
inactive: dose: 4.88 mg/kg/injection, schedule: Q01DX005 (ip), vehicle: Klucel (hydroxypropylcellulose) (HPC) 89 % of control | dose: 9.75 mg/kg/injection, schedule: Q01DX005 (ip), vehicle: Klucel (hydroxypropylcellulose) (HPC) 94 % of control | dose: 39.0 mg/kg/injection, schedule: Q01DX005 (ip), vehicle: Klucel (hydroxypropylcellulose) (HPC) 94 % of control | dose: 78.0 mg/kg/injection, schedule: Q01DX005 (ip), vehicle: Klucel (hydroxypropylcellulose) (HPC) 94 % of control

COc1ccc2c3c(c4ccccc4c2c1)C(=O)OC3=O
inactive: dose: 25.0 mg/kg/injection, schedule: Q01DX005 (ip), vehicle: saline with Tween-80 87 % of control | [15] 87 % of control | [16] 109 % of control

COCCCn1nnc2ccccc2c1=O
inactive: [4] 105 % of control | [5] 100 % of control | dose: 100.0 mg/kg/injection, schedule: Q01DX009 (ip), vehicle: other 104 % of control | dose: 200.0 mg/kg/injection, schedule: Q01DX009 (ip), vehicle: other 106 % of control

CC(C)=CCCc1cc(-c2cc(CCC=C(C)C)nc(N)n2)nc(N)n1
inactive: dose: 60.0 mg/kg/injection, schedule: Q01DX005 (ip), vehicle: saline 99 % of control | dose: 120.0 mg/kg/injection, schedule: Q01DX005 (ip), vehicle: saline 103 % of control

CC1(C)Cc2nn3c(c2C(=O)O1)CC(c1ccccc1)c1ccccc1-3 (configuration not stated)
inactive: dose: 100.0 mg/kg/injection, schedule: Q01DX001 (ip), vehicle: saline with Tween-80 90 % of control | dose: 200.0 mg/kg/injection, schedule: Q01DX001 (ip), vehicle: saline with Tween-80 89 % of control | dose: 400.0 mg/kg/injection, schedule: Q01DX001 (ip), vehicle: saline with Tween-80 96 % of control

[O-][n+]1cnn2ccccc21
inactive: [1] 100 % of control | [2] 106 % of control | [3] 102 % of control

C[n+]1ccc(/C=C/c2ccccc2)cc1
inactive: [11] 95 % of control | [6] 90 % of control | [7] 95 % of control | [8] 97 % of control

CCCCCCCCCCCCCCCCCC(=O)NC1c2ccccc2Oc2ccccc21
inactive: [15] 87 % of control | [16] 90 % of control | dose: 200.0 mg/kg/injection, schedule: Q01DX005 (ip), vehicle: saline with Tween-80 92 % of control

COc1cccc2c1C(=O)c1c(O)c3c(c(O)c1C2=O)C[C@@](O)(c1csc(-c2ccccc2)n1)C[C@@H]3OC1CC(N)C(O)C(C)O1 (some centres not stated)
active: [9] 174 % of control | [10] 165 % of control | dose: 6.25 mg/kg/injection, schedule: Q01DX009 (ip), vehicle: water 182 % of control

C/C=C/C=c1/[nH]c(=O)/c(=C\C)[nH]c1=O
inactive: dose: 50.0 mg/kg/injection, schedule: Q04DX003 (ip), vehicle: Klucel (hydroxypropylcellulose) (HPC) 100 % of control | dose: 100.0 mg/kg/injection, schedule: Q04DX003 (ip), vehicle: Klucel (hydroxypropylcellulose) (HPC) 98 % of control | dose: 200.0 mg/kg/injection, schedule: Q04DX003 (ip), vehicle: Klucel (hydroxypropylcellulose) (HPC) 90 % of control

O=C(NC(=O)c1ccccc1F)Nc1ccc(Cl)cc1
inactive: [12] 101 % of control | [13] 100 % of control | [14] 91 % of control

CN(C)C(c1cccnc1)C1COCOC1 (configuration not stated)
inactive: dose: 50.0 mg/kg/injection, schedule: Q01DX005 (ip), vehicle: saline 109 % of control | dose: 100.0 mg/kg/injection, schedule: Q01DX005 (ip), vehicle: saline 106 % of control | dose: 200.0 mg/kg/injection, schedule: Q01DX005 (ip), vehicle: saline 98 % of control

CN1CC(NC(=O)N(CCCl)N=O)CC2c3cccc4c3c(cn4N=O)CC21 (configuration not stated)
active: dose: 50.0 mg/kg/injection, schedule: Q01DX001 (ip), vehicle: Klucel (hydroxypropylcellulose) (HPC) 166 % of control | dose: 100.0 mg/kg/injection, schedule: Q01DX001 (ip), vehicle: Klucel (hydroxypropylcellulose) (HPC) 166 % of control and 201 % of control | dose: 200.0 mg/kg/injection, schedule: Q01DX001 (ip), vehicle: Klucel (hydroxypropylcellulose) (HPC) 166 % of control

CNC(=S)SC1=NS(=O)(=O)c2ccccc2N1
inactive: dose: 30.0 mg/kg/injection, schedule: Q01DX005 (ip), vehicle: Klucel (hydroxypropylcellulose) (HPC) 111 % of control | dose: 60.0 mg/kg/injection, schedule: Q01DX005 (ip), vehicle: Klucel (hydroxypropylcellulose) (HPC) 99 % of control and 110 % of control | dose: 120.0 mg/kg/injection, schedule: Q01DX005 (ip), vehicle: Klucel (hydroxypropylcellulose) (HPC) 116 % of control and 117 % of control

COC(=O)c1ccc(C(=O)OC)c2nc3cc([N+](=O)[O-])ccc3nc12
inactive: dose: 60.0 mg/kg/injection, schedule: Q01DX005 (ip), vehicle: suspension in saline 100 % of control | dose: 120.0 mg/kg/injection, schedule: Q01DX005 (ip), vehicle: suspension in saline 102 % of control

O=C(Nc1ccccc1Cl)Oc1ccc(Cl)cc1Cl
inactive: [12] 101 % of control | [13] 110 % of control | [14] 106 % of control
